# Patent US4710498A, “Pyridyloxy derivatives” (Ikeda Mohando Co., Ltd., priority 1984, dated 1987)
# Like-named read-outs stand apart in the source and are kept apart here.
# What was measured:
# Histamine H2 -Receptor = biological target: T1, Histamine H2 -Receptor (Cavia porcellus, UniProt P47747); experiment: biochemical; parameters: species or system male Hartley guinea pig; conditions: for Kb: negative logarithm of molar concentration, isolated guinea pig atrium, read-out: Antagonistic Action against Histamine H2 -Receptor (pA2) Determined by Using Atrium isolated from Guinea Pig (converted)
# T1 construct: from tissue; host or cells: isolated right atrium of male Hartley guinea pig
# T1 sequence (P47747 whole entry): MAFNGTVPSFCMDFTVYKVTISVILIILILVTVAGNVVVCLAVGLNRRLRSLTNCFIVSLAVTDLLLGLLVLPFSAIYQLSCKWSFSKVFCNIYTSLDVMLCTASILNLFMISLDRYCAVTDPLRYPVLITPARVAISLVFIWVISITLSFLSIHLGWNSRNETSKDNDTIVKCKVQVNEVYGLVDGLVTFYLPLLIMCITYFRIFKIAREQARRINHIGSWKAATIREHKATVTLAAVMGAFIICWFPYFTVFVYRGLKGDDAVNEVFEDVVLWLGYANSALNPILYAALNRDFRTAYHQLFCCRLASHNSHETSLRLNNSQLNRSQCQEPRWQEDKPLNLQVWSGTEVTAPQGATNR
# Description: A male Hartley guinea pig having a body weight of about 400 g was killed by cervical dislocation, and the atrium thereof was isolated and was suspended in an organ bath containing […] of a modified Ringer solution and subjected to a tension of 1 g. The number of heart beats under such condition was recorded using a polygraph.
# Initially, from 1×10^-7 mol to 3×10^-4 mol of histamine was allowed to act accumulatively to depict the curve of the dosage-reaction relationship. Likewise, the curve of the dosage of histamine-reaction relationship was depicted in the presence of 5×10^-7 mol to 1×10^-6 mol of the test sample which was injected 3 minutes before. The negative logarithm (pA2) of the molar concentration of the test sample required for moving the curve obtained by single administration of histamine parallel to the right side by a two-times concentration was calculated.
# [1] = system: Gastric Acid Secretion Induced by Histamine; experiment: Inhibition effect on gastric acid secretion induced by histamine in pylorus ligated rat (subcutaneous); assay type: in vivo, male Wistar rat
# Description: (§1) A male Wistar rat having a body weight of about 160 g and which had not fed for 24 hours was anesthetized by an intraperitoneal dose of 1.2 g/kg of urethane. After ligating of pylorus and esophagus, the gaster anterior was incised and fitting with a double polyethylene cannula. The wall of the stomach was rinsed with 5 ml of saline at 30 minutes intervals, and the quantity of gastric acid contained in each rinsing solution was measured by titration.
# The basal acid secretion was initially measured three times, and then 0.2 mg/kg of each of the compounds of this invention was administered subcutaneously and 3 mg/kg of histamine was administered subcutaneously after the lapse of an additional 30 minutes.
# (§2) The quantity of gastric acid secreted after the operation was measured continuously for 3 hours. Within that measurement interval, three time points at which the increase in acid secretion reached a maximum level were selected, and the average quantity of gastric acid secreted at those time points was taken as the increase in acid secretion, which was compared with the increase in acid secretion of the control group to calculate the percent inhibition for secretion of gastric acid (Table 1). [formula] (The result was shown as the average value of five runs.)
# [2] = system: Gastric Acid Secretion Induced by Histamine; experiment: Inhibitory effect of intraduodenally administered compounds on gastric acid secretion induced by histamine in rat; assay type: in vivo, male Wistar rat; conditions: for ED50: Rattus norvegicus; for Efficacy Ratio relative to Cimetidine (Cimetidine = 1): rat, in vivo
# Description: The test was conducted by an improved method based on that reported by Watanabe et al., in "Pharmacometrics", Vol. 3, No. (1), pages 7 to 14 (1969).
# as §1, §2
# [3] = Rattus norvegicus, 0.2 mg/kg SC, histamine 3 mg/kg SC, average of five runs, read-out: Secretion of Gastric Acid in Rat, Inhibition Rate (%)
# [4] = intraduodenal, 30 minutes before histamine SC, first series (Table 2-1), read-out: Median effective dose (ED50) inhibiting Gastric Acid Section (95% Reliability Limit)
# [5] = intraduodenal, 30 minutes before histamine SC, second series (Table 2-2), read-out: Median effective dose (ED50) inhibiting Gastric Acid Section (95% Reliability Limit)
Compound,Kb (Histamine H2 -Receptor) [nM],"inhibition in vivo at 0.2 mg/kg [1, 3] [%]","ED50 [2, 4] [mg/kg]",Efficacy Ratio relative to Cimetidine (Cimetidine = 1) [2],also measured
"CNc1n[s+]([O-])nc1NC/C=C\COc1cccc(CN2CCCCC2)n1 (stereo not drawn) [Ex. 35, 3-methylamino-4-[4-<6-(1-piperidinomethyl)pyridyl-2-oxy>-cis-2-butenylamino]-1,2,5-thiadiazole-1-oxide]",1100,74,–,–,–
"O=c1nc(NC/C=C\COc2cc(CN3CCCCC3)ccn2)[nH]nc1Cc1cccnc1 [Ex. 25, 3-[4-<4-(1-piperidinomethyl)pyridyl-2-oxy>-cis-2-butenylamino]-6-(3-pyridylmethyl)-1,2,4-triazin-5-one]",170,55,0.14,50.0,–
"CNc1n[s+]([O-])nc1NC/C=C/COc1cc(CN2CCCCC2)ccn1 (stereo not drawn) [Ex. 10, 3-methylamino-4-[4-<4-(1-piperidinomethyl)pyridyl-2-oxy>-trans-2-butenylamino]-1,2,5-thiadiazole-1-oxide]",182,52,–,–,–
"Nc1c(NC/C=C\COc2cccc(CN3CCCCC3)n2)c(=O)c1=O [Ex. 32, 1-amino-2-[4-<6-(1-piperidinomethyl)pyridyl-2-oxy>-cis-2-butenylamino]-1-cyclobuten-3,4-dione]",490,33,–,32.8,"ED50 [2, 5]: 0.25 mg/kg"
"Nc1nnc(NC/C=C\COc2cccc(CN3CCCCC3)n2)s1 [Ex. 39, 2-amino-5-[4-<6-(1-piperidinomethyl)pyridyl-2-oxy>-cis-2-butenylamino]-1,3,4-thiadiazole]",1550,36,–,–,–
"Nc1cc(NC/C=C\COc2cc(CN3CCCCC3)ccn2)[nH]c(=O)n1 [Ex. 26, 4-amino-6-[4-<4-(1-piperidinomethyl)pyridyl-2-oxy>-cis-2-butenylamino]-1H-pyrimidin-2-one]",263,83,–,–,–
"Cn1nc(N)nc1NC/C=C\COc1cccc(CN2CCCCC2)n1 [Ex. 41, 3-amino-1-methyl-5-[4-<6-(1-piperidinomethyl)pyridyl-2-oxy>-cis-2-butenylamino]-1H-1,2,4-triazole]",1910,32,–,–,–
"CN(C)Cc1c[nH]c(NC/C=C\COc2cc(CN3CCCCC3)ccn2)nc1=O [Ex. 21, 5-dimethylaminomethyl-2-[4-<4-(1-piperidinomethyl)pyridyl-2-oxy>-cis-2-butenylamino]-1H-pyrimidin-4-one]",316,65,–,–,–
"NC1=NS(=O)(=O)N=C1NC/C=C\COc1cc(CN2CCCCC2)ccn1 [Ex. 13, 3-amino-4-[4-<4-(1-piperidinomethyl)pyridyl-2-oxy>-cis-2-butenylamino]-1,2,5-thiadiazole-1,1-dioxide]",708,84,0.5,14.0,–
"NC1=NS(=O)(=O)N=C1NC/C=C\COc1cccc(CN2CCCCC2)n1 [Ex. 36, 3-amino-4-[4-<6-(1-piperidinomethyl)pyridyl-2-oxy>-cis-2-butenylamino]-1,2,5-thiadiazole-1,1-dioxide]",263,72,–,41.0,"ED50 [2, 5]: 0.2 mg/kg"
"Nc1nnc(NC/C=C\COc2cc(CN3CCCCC3)ccn2)s1 [Ex. 17, 2-amino-5-[4-<4-(1-piperidinomethyl)pyridyl-2-oxy>-cis-2-butenylamino]-1,3,4-thiadiazole]",204,69,0.14,50.0,–
"Nc1n[nH]c(=O)nc1NC/C=C/COc1cc(CN2CCCCC2)ccn1 [compound 30, 6-amino-5-[4-<4-(1-piperidinomethyl)pyridyl-2-oxy>trans-2-butenylamino]-1,2,4-triazin-3-one]",–,–,0.26,26.9,–
"CNc1c(NC/C=C\COc2cccc(CN3CCCCC3)n2)c(=O)c1=O [Ex. 33, 1-methylamino-2-[4-<6-(1-piperidinomethyl)pyridyl-2-oxy>-cis-2-butenylamino]-1-cyclobuten-3,4-dione]",661,34,–,–,–
"Nc1cc(NC/C=C\COc2cccc(CN3CCCCC3)n2)[nH]c(=O)n1 [Ex. 47, 4-amino-6-[4-<6-(1-piperidinomethyl)pyridyl-2-oxy>-cis-2-butenylamino]-1H-pyrimidin-2-one]",–,40,–,–,–
"Nc1n[nH]c(=O)nc1NC/C=C\COc1cccc(CN2CCCCC2)n1 [Ex. 49, 6-amino-5-[4-<6-(1-piperidinomethyl)pyridyl-2-oxy<-cis-2-butenylamino]-1,2,4-triazin-3-one]",1700,45,–,–,–
"CN(C)Cc1cccc(Cc2c[nH]c(NC/C=C\COc3cc(CN4CCCCC4)ccn3)nc2=O)c1 [Ex. 23, 5-(3-dimethylaminomethylbenzyl)-2-[4-<4-(1-piperidinomethyl)pyridyl-2-oxy>-cis-2-butenylamino]-1H-pyrimidin-4-one]",1550,36,–,–,–
"Nc1n[s+]([O-])nc1NC/C=C\COc1cc(CN2CCCCC2)ccn1 (stereo not drawn) [Ex. 7, 3-amino-4-[4-<4-(1-piperidinomethyl)pyridyl-2-oxy>-cis-2-butenylamino]-1,2,5-thiadiazole-1-oxide]",661,90,0.44,15.9,–
"Nc1nsnc1NC/C=C\COc1cc(CN2CCCCC2)ccn1 [Ex. 15, 3-amino-4-[4-<4-(1-piperidinomethyl)pyridyl-2-oxy>-cis-2-butenylamino]-1,2,5-thiadiazole]",35.5,61,0.38,18.4,antagonistic actions against Histamine H2 -receptor (in words) (Histamine H2 -Receptor; isolated right atria of guinea pigs): strong
"Nc1n[s+]([O-])nc1NC/C=C\COc1cccc(CN2CCCCC2)n1 (stereo not drawn) [Ex. 34, 3-amino-4-[4-<6-(1-piperidinomethyl)pyridyl-2-oxy>-cis-2-butenylamino]-1,2,5-thiadiazole-1-oxide]",933,81,–,–,–
"CN/C(=N/CCSCc1nc[nH]c1C)NC#N [Cimetidine, reference compound]",–,–,–,–,"ED50 ([2]; read-out: Median effective dose (ED50) inhibiting Gastric Acid Section (95% Reliability Limit), intraduodenal, 30 minutes before histamine SC, first series (Table 2-1)): 7 mg/kg; ED50 ([2]; read-out: Median effective dose (ED50) inhibiting Gastric Acid Section (95% Reliability Limit), intraduodenal, 30 minutes before histamine SC, second series (Table 2-2)): 8.2 mg/kg; inhibition in vivo at 2 mg/kg ([1]; Rattus norvegicus, sc, read-out: Secretion of Gastric Acid in Rat, Inhibition Rate (%)): 72%"
"CNc1n[s+]([O-])nc1NC/C=C\COc1cc(CN2CCCCC2)ccn1 (stereo not drawn) [Ex. 8, 3-methylamino-4-[4-<4-(1-piperidinomethyl)pyridyl-2-oxy>-cis-2-butenylamino]-1,2,5-thiadiazole-1-oxide]",490,85,–,–,–
"CN(C)Cc1ccnc(OC/C=C\CNc2c(N)c(=O)c2=O)c1 [Ex. 3, 1-amino-2-<4-(4-dimethylaminomethylpyridyl-2-oxy)-cis-2-butenylamino>-1-cyclobuten-3,4-dione]",468,52,–,–,–
5-dimethylaminomethylbenzyl-2-[4-<6-(1-pipelidinomethyl)pyridyl-2-oxy>-cis-2-butenylamino]-1H-pyrimidin-4-one [Ex. 45],–,–,–,–,"Secretion of Gastric Acid in Rat, Inhibition Rate (%) ([1]; 0.2 mg/kg SC, histamine 3 mg/kg SC, average of five runs): 36%"
"CN(C)Cc1ccnc(OC/C=C\CNc2nc(=O)[nH]nc2N)c1 [compound 31, 6-amino-5-<4-(4-dimethylaminomethylpyridyl-2-oxy)-cis-2-butenylamino>-1,2,4-triazin-3-one]",–,–,0.28,25.0,–
"CNc1c(NC/C=C\COc2cc(CN(C)C)ccn2)c(=O)c1=O [Ex. 4, 1-methylamino-2-<4-(4-dimethylaminomethylpyridyl-2-oxy)-cis-2-butenylamino>-1-cyclobuten-3,4-dione]",–,–,0.11,63.6,–
"CN(C)Cc1c[nH]c(NC/C=C\COc2cccc(CN3CCCCC3)n2)nc1=O [Ex. 43, 5-dimethylaminomethyl-2-[4-<6-(1-piperidinomethyl)pyridyl-2-oxy>-cis-2-butenylamino]-1H-pyrimidin-4-one]",617,44,–,–,–
